What follows are molecules tested against T1, IRAK-4 (Homo sapiens, UniProt Q9NWZ3) (assay: IRAK-4 ELISA, PBMC degradation). Settings: treated overnight.
T1 sequence (Q9NWZ3 1-460): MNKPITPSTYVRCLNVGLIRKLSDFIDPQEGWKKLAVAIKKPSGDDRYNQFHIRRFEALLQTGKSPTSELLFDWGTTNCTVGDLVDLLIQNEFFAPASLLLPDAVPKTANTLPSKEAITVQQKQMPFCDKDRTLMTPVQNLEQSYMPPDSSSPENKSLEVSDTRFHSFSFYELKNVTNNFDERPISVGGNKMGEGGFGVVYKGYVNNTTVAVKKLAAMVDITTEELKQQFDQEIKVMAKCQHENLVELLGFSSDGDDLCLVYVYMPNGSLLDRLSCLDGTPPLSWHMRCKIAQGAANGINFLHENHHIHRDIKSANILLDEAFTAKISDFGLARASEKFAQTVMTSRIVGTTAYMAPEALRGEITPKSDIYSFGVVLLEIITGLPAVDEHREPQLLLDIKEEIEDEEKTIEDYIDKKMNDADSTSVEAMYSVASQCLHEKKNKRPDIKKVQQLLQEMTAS
Type: cell-based
Parameters: endogenous in cells; host or cells: PBMC
Outline: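 OCI-Ly10 cells (seeded at 1×10^6/ml) or human PBMC (seeded at 2×10^6/ml) were treated with compound on the day of seeding and incubated overnight. Lysates were then assayed for remaining IRAK-4 protein by sandwich ELISA with a matched antibody pair.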

DC50 [nM]	Dmax [%]	PBMC DC90	Compound
1 to 5	80 to 90	A (A represents a DC90 value <10.0 nM)	CC(C)Oc1cc2nn(C3CCN(CC4(C)CN(c5ccc6c(c5)C(=O)N(C5CCC(=O)NC5=O)C6=O)C4)CC3)cc2cc1NC(=O)c1cnn2cccnc12 (stereo not shown) [Example 192]
1 to 5	≥ 90	A (A represents a DC90 value <10.0 nM)	COc1cc(N2CC(N(C)[C@H]3CC[C@H](N4Cc5cc(NC(=O)c6cnn7cccnc67)c(OC(C)C)cc5C4=O)CC3)C2)cc2c1C(=O)N(C1CCC(=O)NC1=O)C2=O (stereo partly shown) [Example 321]
1 to 5	≥ 90	D (D represents a DC90 value ≥50 nM)	CC(C)(C1CCN(c2ccc3c(c2)C(=O)N(C2CCC(=O)NC2=O)C3=O)CC1)N1CCC(n2cc3cc(NC(=O)c4cnn5cccnc45)c(OCC4CC4)cc3n2)CC1 (stereo not shown) [Example 230]
< 1	80 to 90	A (A represents a DC90 value <10.0 nM)	O=C1CCC(N2C(=O)c3ccc(N4CC(CN5CCC(n6cc7cc(NC(=O)c8cnn9cccnc89)c(OC8CCC8)cc7n6)CC5)C4)cc3C2=O)C(=O)N1 (stereo not shown) [Example 197]
< 1	≥ 90	A (A represents a DC90 value <10.0 nM)	CN(C1CCC(n2cc3cc(NC(=O)c4cnn5cccnc45)c(OCC4CC4)cc3n2)CC1)C1CCN(c2ccc3c(c2)C(=O)N(C2CCC(=O)NC2=O)C3=O)CC1 (stereo not shown) [Example 323]
< 1			CC(C)Oc1cc2c(cc1NC(=O)c1cnn3cccnc13)CN([C@H]1CC[C@H](N(C)C3CN(c4ccc5c(c4)CN(C4CCC(=O)NC4=O)C5=O)C3)CC1)C2=O (stereo partly shown) [Example 329]

Further lines, the molecule ahead of its results:

Compound	DC50 [nM]	Dmax [%]	PBMC DC90
O=C1CCC(N2C(=O)c3ccc(N4CC5(CCCN(C6CCC(n7cc8cc(NC(=O)c9cnn%10cccnc9%10)c(OCC9CC9)cc8n7)CC6)C5)C4)cc3C2=O)C(=O)N1 (stereo not shown) [Example 417, N-(6-(cyclopropylmethoxy)-2-(4-(2-(2-(2,6-dioxopiperidin-3-yl)-1,3-dioxoisoindolin-5-yl)-2,6-diazaspiro[3.5]nonan-6-yl)cyclohexyl)-2H-indazol-5-yl)pyrazolo[1,5-a]pyrimidine-3-carboxamide]	< 1	≥ 90	A (A represents a DC90 value <10.0 nM)
CC(C)Oc1cc2c(cc1NC(=O)c1cnn3cccnc13)CN(C1CCC(N3CCC(c4ccc5c(c4)C(=O)N(C4CCC(=O)NC4=O)C5=O)CC3)CC1)C2=O (stereo not shown) [Example 25]	1 to 5	≥ 90	A (A represents a DC90 value <10.0 nM)
CN1CC(Oc2cc3nn(C4CCN(CC5CN(c6ccc7c(c6)C(=O)N(C6CCC(=O)NC6=O)C7=O)C5)CC4)cc3cc2NC(=O)c2cnn3cccnc23)C1 (stereo not shown) [Example 151]	5 to 10	70 to 80	D (D represents a DC90 value ≥50 nM)
O=C1CCC(N2C(=O)c3ccc(N4CC(F)(CN5CCC(n6cc7cc(NC(=O)c8cnn9cccnc89)c(C8CC8)cc7n6)CC5)C4)cc3C2=O)C(=O)N1 (stereo not shown) [Example 199]	1 to 5	≥ 90	B (B represents a DC90 value ≥10.0 nM and <25.0 nM)
O=C1CCC(N2C(=O)c3ccc(N4CC(F)(CN5CCC(n6cc7cc(NC(=O)c8cnn9ccc(N%10CCOCC%10)nc89)c(C(F)F)cc7n6)CC5)C4)cc3C2=O)C(=O)N1 (stereo not shown) [Example 409]	1 to 5	≥ 90	B (B represents a DC90 value ≥10.0 nM and <25.0 nM)
CC(C)Oc1cc2nn(C3CCN(CC4(F)CN(c5ccc(C(=O)NC6CCC(=O)NC6=O)c(F)c5)C4)CC3)cc2cc1NC(=O)c1cnn2cccnc12 (stereo not shown) [Example 293]	1 to 5	≥ 90	B (B represents a DC90 value ≥10.0 nM and <25.0 nM)
CC(C)Oc1cc2nn(C3CCN(CC4(F)CN(c5ccc6c(c5)C(=O)N(C5CCC(=O)NC5=O)C6=O)C4)CC3)cc2cc1NC(=O)c1cnn2ccc(N3C[C@H]4C[C@@H]3CO4)nc12 (stereo partly shown) [Example 191]	5 to 10	80 to 90	D (D represents a DC90 value ≥50 nM)

Source: patent publication US20230099344A1, “COMPOUNDS AND METHODS FOR THE TARGETED DEGRADATION OF IRAK-4” (Arvinas Operations, Inc., priority 2021, published 2023)
